# How the values were obtained:
# parental MP41 cells = experiment: 7-day growth inhibition assay, parental cells (Example 14); assay type: cell-based; conditions: FIG. 7B, 7-day assay
# Procedure: (§1) Procedure: MP41 uveal melanoma cells were made resistant to the PKC inhibitor (LXS196; MedChemExpress), by long-term culture in growth media (see Table 6) containing increasing concentrations of the compound, up to 1 micromolar. After 3 months, sensitivity of the parental MP41 cells and the PKC inhibitor (PKCi)-resistant cells to the PKC inhibitor (LXS196) or the BRG1/BRM ATPase inhibitor (Compound B) was tested in a 7-day growth inhibition assay as described above in Example 9.
# [1] = test system: PKC inhibitor (PKCi)-resistant MP41 uveal melanoma cells; experiment: 7-day growth inhibition assay, PKC inhibitor-resistant cells (Example 14); assay type: cell-based; conditions: FIG. 7B
# Procedure: as §1
# [2] = test system: Uveal melanoma cell lines, 92-1 or MP41; experiment: 3-day growth inhibition compared with clinical PKC and MEK inhibitors, Compound B (Example 13); assay type: cell-based; conditions: FIG. 6A and 6B
# Procedure: Procedure: Uveal melanoma cell lines, 92-1 or MP41, were plated in 96 well plates in the presence of growth media (see Table 6). BAF ATPase inhibitor (Compound B), PKC inhibitor (LXS196; MedChemExpress), and MEK Inhibitor (Selumetinib; Selleck Chemicals) were dissolved in DMSO and added to the cells in a concentration gradient from 0 to 10 micromolar at the time of plating. Cells were incubated at 37° C. for 3 days. After three days of treatment, cell growth was measured with Cell-titer glow (Promega), and luminescence was read on an Envision plate reader (Perkin Elmer).
# [3] = test system: Uveal melanoma cell lines (92-1, MP41, MP38, MP46) and Non-small cell lung cancer cells (NCIH1299); experiment: 3-day cell growth, Cell-titer glow (Example 12); assay type: cell-based; conditions: FIG. 5, 3 days, 0 to 10 micromolar
# Procedure: Procedure: Uveal melanoma cell lines (92-1, MP41, MP38, MP46) and Non-small cell lung cancer cells (NCIH1299) were plated into 96 well plates with growth media (see Table 6). BRG1/BRM ATPase inhibitor, compound 67, was dissolved in DMSO and added to the cells in a concentration gradient from 0 to 10 micromolar at the time of plating. Cells were incubated at 37° C. for 3 days. After three days of treatment, cell growth was measured with Cell-titer glow (Promega), and luminescence was read on an Envision plate reader (Perkin Elmer).
# [4] = Body weight and tolerability in mice engrafted with 92-1 tumors (Example 16); assay type: in vivo; conditions: all treatments, once daily oral gavage, 3 weeks, FIG. 8C
# Procedure: Procedure: Nude mice (Envigo) were engrafted subcutaneously in the axillary region with 5×10^6 92-1 uveal melanoma cells in 50% Matrigel. Tumors were grown to a mean of ˜200 mm^3, at which point mice were grouped and dosing was initiated. Mice were dosed once daily by oral gavage with vehicle (20% 2-Hydroxypropyl-[…]) or increasing doses of Compound C. Tumor volumes and body weights were measured over the course of 3 weeks, and doses were adjusted by body weight to achieve the proper dose in terms of mg/kg. At this time, animals were sacrificed, and tumors were dissected and imaged.
SMILES,growth inhibition of parental cell line (parental MP41 cells),sensitivity of PKCi-resistant cells versus the parental MP41 cells [1],growth inhibition of PKCi-resistant cell line ([1]; 7-day assay),onset of growth inhibition versus the clinical PKC and MEK inhibitors [2],"growth inhibition of uveal melanoma cells versus the clinical PKC and MEK inhibitors ([2]; 3 days, 0 to 10 micromolar)",growth inhibition in the uveal melanoma cell lines [3],"tolerability, body weight [4]"
"CSCC[C@H](NC(=O)c1ccn(S(C)(=O)=O)c1)C(=O)Nc1nc(-c2cccc(-c3ccncc3)c2)cs1 [Compound B, (S)-1-(methylsulfonyl)-N-(4-(methylthio)-1-oxo-1-((4-(3-(pyridin-4-yl)phenyl)thiazol-2-yl)amino)butan-2-yl)-1H-pyrrole-3-carboxamide]",strong growth inhibition,more sensitive,strong growth inhibition,faster onset of growth inhibition,more potent effects on growth inhibition,potent growth inhibition,
"C[C@@H]1CN(c2cccc(-c3csc(NC(=O)CNC(=O)c4ccn(C(C)(C)C)c4)n3)n2)C[C@H](C)O1 [Compound C, 1-(tert-butyl)-N-(2-((4-(6-(cis-2,6-dimethylmorpholino)pyridin-2-yl)thiazol-2-yl)amino)-2-oxoethyl)-1H-pyrrole-3-carboxamide]",,,,,,,well tolerated with no body weight loss observed
